Measurements: the supplement of paper PMC10307832

What was measured:
Test in all cases: relative viability (nuclei count vs DMSO), 5 days (fraction); higher = more cells survive
201T = test system: 201T
Method in brief: (§1)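 Relative viability is defined as nuclei in treated wells over nuclei in vehicle wells. Duplicate plates were run and medians reported. Lung cancer cell lines in 1536-well plates were dosed by pin tool one day after seeding, with one drug or with a fixed anchor-drug dose plus five library-drug doses (not always all listed) in √10 steps, and nuclei were counted after 5 days.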

A-427 = test system: A-427
Method in brief: as §1

ABC-1 = test system: ABC-1
Method in brief: as §1

BEN = test system: BEN
Method in brief: as §1

CAL-12T = test system: CAL-12T
Method in brief: as §1

H3255 = test system: H3255
Method in brief: as §1

LC-2-ad = test system: LC-2-ad
Method in brief: as §1

LCLC-97TM1 = test system: LCLC-97TM1
Method in brief: as §1

NCI-H1650 = test system: NCI-H1650
Method in brief: as §1

NCI-H1651 = test system: NCI-H1651
Method in brief: as §1

NCI-H1792 = test system: NCI-H1792
Method in brief: as §1

NCI-H1915 = test system: NCI-H1915
Method in brief: as §1

NCI-H2023 = test system: NCI-H2023
Method in brief: as §1

NCI-H2087 = test system: NCI-H2087
Method in brief: as §1

NCI-H441 = test system: NCI-H441
Method in brief: as §1

NCI-H460 = test system: NCI-H460
Method in brief: as §1

NCI-H520 = test system: NCI-H520
Method in brief: as §1

NCI-H596 = test system: NCI-H596
Method in brief: as §1

NCI-H650 = test system: NCI-H650
Method in brief: as §1

NCI-H661 = test system: NCI-H661
Method in brief: as §1

NCI-H727 = test system: NCI-H727
Method in brief: as §1

PC-3 [JPC-3] = test system: PC-3 [JPC-3]
Method in brief: as §1

NC(=O)Nc1cc(-c2cccc(F)c2)sc1C(=O)N[C@H]1CCCNC1 [AZD7762] + CC(C)C[C@H](NC(=O)[C@H](Cc1ccccc1)NC(=O)c1cnccn1)B(O)O [Bortezomib] (partner 0.002 µM)
relative viability (201T; first compound 0.01 µM): 1.09 | relative viability (201T; first compound 0.03162 µM): 1.12 | relative viability (201T; first compound 0.1 µM): 1.12 | relative viability (201T; first compound 0.3162 µM): 1.12 | relative viability (201T; first compound 1 µM): 1.19 | relative viability (A-427; first compound 0.01 µM): 0.988 | relative viability (A-427; first compound 0.03162 µM): 0.965 | relative viability (A-427; first compound 0.1 µM): 0.989 | relative viability (A-427; first compound 0.3162 µM): 1.04 | relative viability (A-427; first compound 1 µM): 0.272 | relative viability (ABC-1; first compound 0.01 µM): 0.276 | relative viability (ABC-1; first compound 0.03162 µM): 0.389 | relative viability (ABC-1; first compound 0.1 µM): 0.3 | relative viability (ABC-1; first compound 0.3162 µM): 0.26 | relative viability (ABC-1; first compound 1 µM): 0.202 | relative viability (BEN; first compound 0.01 µM): 0.902 | relative viability (BEN; first compound 0.03162 µM): 0.758 | relative viability (BEN; first compound 0.1 µM): 0.888 | relative viability (BEN; first compound 0.3162 µM): 0.821 | relative viability (BEN; first compound 1 µM): 0.636 | relative viability (CAL-12T; first compound 0.01 µM): 0.96 | relative viability (CAL-12T; first compound 0.03162 µM): 1.06 | relative viability (CAL-12T; first compound 0.1 µM): 0.931 | relative viability (CAL-12T; first compound 0.3162 µM): 0.641 | relative viability (CAL-12T; first compound 1 µM): 0.23 | relative viability (H3255; first compound 0.01 µM): 0.818 | relative viability (H3255; first compound 0.03162 µM): 0.852 | relative viability (H3255; first compound 0.1 µM): 0.734 | relative viability (H3255; first compound 0.3162 µM): 0.609 | relative viability (H3255; first compound 1 µM): 0.59 | relative viability (LC-2-ad; first compound 0.01 µM): 1.04 | relative viability (LC-2-ad; first compound 0.03162 µM): 1.14 | relative viability (LC-2-ad; first compound 0.1 µM): 0.975 | relative viability (LC-2-ad; first compound 0.3162 µM): 0.909 | relative viability (LC-2-ad; first compound 1 µM): 0.732 | relative viability (LCLC-97TM1; first compound 0.01 µM): 0.767 | relative viability (LCLC-97TM1; first compound 0.03162 µM): 0.822 | relative viability (LCLC-97TM1; first compound 0.1 µM): 0.737 | relative viability (LCLC-97TM1; first compound 0.3162 µM): 0.335 | relative viability (LCLC-97TM1; first compound 1 µM): 0.634 | relative viability (NCI-H1650; first compound 0.01 µM): 0.217 | relative viability (NCI-H1650; first compound 0.03162 µM): 0.205 | relative viability (NCI-H1650; first compound 0.1 µM): 0.211 | relative viability (NCI-H1650; first compound 0.3162 µM): 0.203 | relative viability (NCI-H1650; first compound 1 µM): 0.204 | relative viability (NCI-H1651; first compound 0.01 µM): 0.945 | relative viability (NCI-H1651; first compound 0.03162 µM): 0.932 | relative viability (NCI-H1651; first compound 0.1 µM): 1.01 | relative viability (NCI-H1651; first compound 0.3162 µM): 0.963 | relative viability (NCI-H1651; first compound 1 µM): 0.686 | relative viability (NCI-H1792; first compound 0.01 µM): 0.982 | relative viability (NCI-H1792; first compound 0.03162 µM): 0.941 | relative viability (NCI-H1792; first compound 0.1 µM): 0.925 | relative viability (NCI-H1792; first compound 0.3162 µM): 1.01 | relative viability (NCI-H1792; first compound 1 µM): 1.04 | relative viability (NCI-H1915; first compound 0.01 µM): 0.989 | relative viability (NCI-H1915; first compound 0.03162 µM): 0.99 | relative viability (NCI-H1915; first compound 0.1 µM): 1.03 | relative viability (NCI-H1915; first compound 0.3162 µM): 1.02 | relative viability (NCI-H1915; first compound 1 µM): 0.959 | relative viability (NCI-H2023; first compound 0.01 µM): 0.82 | relative viability (NCI-H2023; first compound 0.03162 µM): 0.904 | relative viability (NCI-H2023; first compound 0.1 µM): 0.465 | relative viability (NCI-H2023; first compound 0.3162 µM): 0.283 | relative viability (NCI-H2023; first compound 1 µM): 0.104 | relative viability (NCI-H2087; first compound 0.01 µM): 0.88 | relative viability (NCI-H2087; first compound 0.03162 µM): 0.851 | relative viability (NCI-H2087; first compound 0.1 µM): 0.792 | relative viability (NCI-H2087; first compound 0.3162 µM): 0.972 | relative viability (NCI-H2087; first compound 1 µM): 1.01 | relative viability (NCI-H441; first compound 0.01 µM): 1.13 | relative viability (NCI-H441; first compound 0.03162 µM): 0.972 | relative viability (NCI-H441; first compound 0.1 µM): 0.313 | relative viability (NCI-H441; first compound 0.3162 µM): 0.456 | relative viability (NCI-H441; first compound 1 µM): 0.548 | relative viability (NCI-H460; first compound 0.01 µM): 1.18 | relative viability (NCI-H460; first compound 0.03162 µM): 1.04 | relative viability (NCI-H460; first compound 0.1 µM): 1.18 | relative viability (NCI-H460; first compound 0.3162 µM): 0.88 | relative viability (NCI-H460; first compound 1 µM): 0.0988 | relative viability (NCI-H520; first compound 0.01 µM): 0.471 | relative viability (NCI-H520; first compound 0.03162 µM): 0.659 | relative viability (NCI-H520; first compound 0.1 µM): 0.525 | relative viability (NCI-H520; first compound 0.3162 µM): 0.27 | relative viability (NCI-H520; first compound 1 µM): 0.289 | relative viability (NCI-H596; first compound 0.01 µM): 1.02 | relative viability (NCI-H596; first compound 0.03162 µM): 0.896 | relative viability (NCI-H596; first compound 0.1 µM): 1.13 | relative viability (NCI-H596; first compound 0.3162 µM): 1.2 | relative viability (NCI-H596; first compound 1 µM): 1.03 | relative viability (NCI-H650; first compound 0.01 µM): 0.851 | relative viability (NCI-H650; first compound 0.03162 µM): 0.892 | relative viability (NCI-H650; first compound 0.1 µM): 0.772 | relative viability (NCI-H650; first compound 0.3162 µM): 0.687 | relative viability (NCI-H650; first compound 1 µM): 0.767 | relative viability (NCI-H661; first compound 0.01 µM): 0.828 | relative viability (NCI-H661; first compound 0.03162 µM): 0.938 | relative viability (NCI-H661; first compound 0.1 µM): 0.766 | relative viability (NCI-H661; first compound 0.3162 µM): 0.681 | relative viability (NCI-H661; first compound 1 µM): 0.382 | relative viability (NCI-H727; first compound 0.01 µM): 1.04 | relative viability (NCI-H727; first compound 0.03162 µM): 0.878 | relative viability (NCI-H727; first compound 0.1 µM): 0.556 | relative viability (NCI-H727; first compound 0.3162 µM): 0.446 | relative viability (NCI-H727; first compound 1 µM): 0.298 | relative viability (PC-3 [JPC-3]; first compound 0.01 µM): 0.886 | relative viability (PC-3 [JPC-3]; first compound 0.03162 µM): 0.88 | relative viability (PC-3 [JPC-3]; first compound 0.1 µM): 0.829 | relative viability (PC-3 [JPC-3]; first compound 0.3162 µM): 0.883 | relative viability (PC-3 [JPC-3]; first compound 1 µM): 0.785
